Consider two compounds from PMC10384562, “Synthesis and Structure Determination of Substituted Thiazole Derivatives as EGFR/BRAF^V600E Dual Inhibitors Endowed with Antiproliferative Activity” (Pharmaceuticals, 2023).

Where two headings read alike, the source gives them in different places.

Broadly, the viability is a read-out of living cells in per cent, often relative to untreated cells. Read a high viability as better survival. By IC50 is commonly meant the midpoint of a concentration-inhibition curve. As usually defined, the GI50 is the concentration that inhibits growth by half.

One series is described as follows: in vitro. The note with it: human.
Series [1] has as its system pancreatic cancer (Panc-1) cell line. Put plainly: Antiproliferative assay, Panc-1. The note with it: Homo sapiens; Panc-1 pancreatic cancer cells; read-out: Antiproliferative Activity IC50 ± SEM, Panc-1. The series is classed as cell-based. As for the experimental part:
(§1) 4.2.1.2. Assay for antiproliferative effect
(§2) To explore the antiproliferative potential of compounds propidium iodide fluorescence assay was performed using different cell lines such as Panc-1 (pancreas cancer cell line), MCF-7 (breast cancer cell line), HT-29 (colon cancer cell line) and A-549 (epithelial cancer cell line), respectively. To calculate the total nuclear DNA, a fluorescent dye (propidium iodide, PI) is used which can attach to the DNA, thus offering a quick and precise technique. PI cannot pass through the cell membrane and its signal intensity can be considered as directly proportional to quantity of cellular
(§3) DNA. Cells whose cell membranes are damaged or have changed permeability are counted as dead ones. The assay was performed by seeding the cells of different cell lines at a density of 3000-7500 cells/well (in200μl medium) in culture plates followed by incubation for 24h at 37 °C in humidified 5%CO2/95% air atmospheric conditions.
(§4) The medium was removed; the compounds were added to the plates at 10 μM concentrations (in 0.1% DMSO) in triplicates, followed by incubation for 48h. DMSO (0.1%) was used as control. After incubation, medium was removed followed by the addition of PI (25 μl, 50μg/mL in water/medium) to each well of the plates. At -80 °C, the plates were allowed to freeze for 24 h, followed by thawing at 25 °C. A fluorometer (Polar-Star BMG Tech) was used to record the readings at excitation and emission wavelengths of 530 and 620 nm for each well. The percentage cytotoxicity of compounds was calculated using the following formula:
(§5) Where ATC= Absorbance of treated cells and AC= Absorbance of control. Erlotinib was used as positive control in the assay.

The test system of series [2] is breast cancer (MCF-7) cell line. Put plainly: Antiproliferative assay, MCF-7. The format is cell-based. The note with it: Homo sapiens, MCF7; MCF-7 breast cancer cells; read-out: Antiproliferative Activity IC50 ± SEM, MCF-7. As for the experimental part:
as §1, §2, §3, §4, §5

In series [3] the test system is colon cancer (HT-29) cell line. Put plainly: Antiproliferative assay, HT-29. The note with it: Homo sapiens; HT-29 colon cancer cells; read-out: Antiproliferative Activity IC50 ± SEM, HT-29. The series is classed as cell-based. As for the experimental part: as §1, §2, §3, §4, §5
Series [4] deals with T1, EGFR (Homo sapiens, UniProt P00533).
T1 construct: CD, amino acids 645–1186); His6 (N); made in house; host or cells: Sf-9 insect cells (baculovirus; pBlueBacHis2B / pFASTBacHTc
T1 sequence (P00533 669-1210): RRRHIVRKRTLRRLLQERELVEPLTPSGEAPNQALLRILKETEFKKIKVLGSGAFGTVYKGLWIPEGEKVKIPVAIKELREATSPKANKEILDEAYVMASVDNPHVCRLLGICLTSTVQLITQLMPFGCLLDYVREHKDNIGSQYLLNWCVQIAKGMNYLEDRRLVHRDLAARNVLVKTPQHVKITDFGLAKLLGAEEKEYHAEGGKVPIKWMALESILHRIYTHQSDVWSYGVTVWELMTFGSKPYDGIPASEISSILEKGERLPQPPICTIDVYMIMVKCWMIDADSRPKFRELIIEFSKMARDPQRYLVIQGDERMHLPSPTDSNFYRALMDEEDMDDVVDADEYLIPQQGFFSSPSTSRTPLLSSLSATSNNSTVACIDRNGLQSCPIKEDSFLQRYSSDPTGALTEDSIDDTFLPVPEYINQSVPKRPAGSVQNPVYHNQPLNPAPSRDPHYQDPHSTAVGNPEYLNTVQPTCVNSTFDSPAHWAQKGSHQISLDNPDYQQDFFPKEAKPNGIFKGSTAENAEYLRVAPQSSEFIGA
Put plainly: EGFR-TK inhibitory assay. The format is biochemical. As for the experimental part: 4.2.2. EGFR inhibitory assay
Baculoviral expression vectors including pBlueBacHis2B and pFASTBacHTc were […]
5ʹ upstream to the EGFR sequence comprised a sequence that encoded (His)6. Sf-9 cells were infected for 72h for protein expression. The pellets of Sf-9 cells were solubilized in a buffer containing sodium vanadate (100 μM), aprotinin (10 μg/mL), triton (1%), HEPES buffer(50mM), ammonium molybdate (10 μM), benzamidine HCl (16 μg/mL), NaCl (10 mM),leupeptin (10 μg/mL) and pepstatin (10 μg/mL) at 0°C for 20 min at pH 7.4, followed by centrifugation for 20 min. To eliminate the nonspecifically bound material, a Ni-NTA super flow packed column was used to pass through and wash the crude extract supernatant first with 10mM and then with 100 mM imidazole. Histidine-linked proteins were first eluted with 250 and then with 500 mM imidazole subsequent to dialysis against NaCl (50 mM), HEPES (20 mM), glycerol (10%) and 1 μg/mL each of aprotinin, leupeptin and pepstatin for 120 min. The purification was performed either at 4 °C or on ice. To record autophosphorylation level, EGFR kinase assay was carried out on the basis of DELFIA/Time-Resolved Fluorometry. The compounds were first dissolved in DMSO […]
pH 7.4. Each compound (10 μL) was incubated with recombinant enzyme (10 μL, 5 ng for EGFR, 1:80 dilution in 100 mM HEPES) for 10 min at 25 °C, subsequent to the addition of 5X buffer (10 μL, containing 2 mM MnCl2, 100 μM Na3VO4, 20 mM HEPES and 1 mM DTT) and ATP-MgCl2 (20 μL, containing 0.1 mM ATP and 50 mM MgCl2) and incubation for 1h. The negative and positive controls were included in each plate by the incubation of enzyme either with or without ATP-MgCl2. The liquid was removed after incubation and the plates were washed thrice using wash buffer.
Europium-tagged antiphosphotyrosine antibody (75 μL, 400 ng) was added to each well followed by incubation of 1h and then washing of the plates using buffer. The enhancement solution was added to each well and the signal was recorded at excitation […]
The autophosphorylation percentage inhibition by compounds was calculated using the following equation: […]

The subject of series [5] is lung cancer (A-549) cell line. Put plainly: Antiproliferative assay, A-549. The note with it: Homo sapiens, A549; A-549 lung cancer cells; read-out: Antiproliferative Activity IC50 ± SEM, A-549. The format is cell-based. As for the experimental part: as §1, §2, §3, §4, §5
(§6) (1 picture or pasted object on this page, not shown here)

The target in a further series is T2, BRAF^V600E (Mus musculus, UniProt P28028, V585E).
T2 construct: Mouse full-length GST-tagged BRAFV600E (7.5 ng,; GST; purchased Invitrogen PV3849
T2 sequence (P28028 whole entry V585E): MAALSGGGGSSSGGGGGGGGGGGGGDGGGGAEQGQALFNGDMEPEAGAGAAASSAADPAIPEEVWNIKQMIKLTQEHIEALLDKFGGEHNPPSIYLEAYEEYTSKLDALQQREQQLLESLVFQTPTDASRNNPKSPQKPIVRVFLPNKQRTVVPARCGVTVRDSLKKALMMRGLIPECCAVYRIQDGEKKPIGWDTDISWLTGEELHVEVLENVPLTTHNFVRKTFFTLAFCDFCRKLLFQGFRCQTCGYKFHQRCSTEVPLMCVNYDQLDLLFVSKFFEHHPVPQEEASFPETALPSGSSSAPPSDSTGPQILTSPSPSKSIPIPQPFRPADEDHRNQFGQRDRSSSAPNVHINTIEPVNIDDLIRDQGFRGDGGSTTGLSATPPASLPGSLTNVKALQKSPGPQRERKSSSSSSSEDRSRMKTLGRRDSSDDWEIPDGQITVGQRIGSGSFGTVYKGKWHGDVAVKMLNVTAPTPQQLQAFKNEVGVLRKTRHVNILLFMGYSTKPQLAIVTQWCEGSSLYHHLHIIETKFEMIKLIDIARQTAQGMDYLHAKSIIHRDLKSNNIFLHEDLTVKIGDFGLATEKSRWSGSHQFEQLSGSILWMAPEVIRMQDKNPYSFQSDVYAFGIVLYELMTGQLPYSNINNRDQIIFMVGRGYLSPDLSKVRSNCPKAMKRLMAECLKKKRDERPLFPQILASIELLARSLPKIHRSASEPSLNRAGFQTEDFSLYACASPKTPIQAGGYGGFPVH
Put plainly: BRAF^V600E inhibitory assay. The format is biochemical. The note with it: read-out: BRAF^V600E Inhibition IC50 ± SEM. As for the experimental part:
See Supplementary Information. […]
4.2.3. BRAFV600E inhibitory assay
V600E mutant BRAF kinase assay was performed to investigate the activity of tested compounds against BRAF. Mouse full-length GST-tagged BRAFV600E (7.5 ng, Invitrogen, PV3849) was pre-incubated with drug (1 µL) and assay dilution buffer (4 µL) for 60 min at 25 °C. In assay dilution buffer, a solution (5 µL) containing MgCl2 (30 mM), ATP (200 µM), recombinant human full length (200 ng) […] N-terminal His-tagged MEK1 (Invitrogen) was added to start the assay, subsequent to incubation for 25 min at 25 °C. The assay was stopped using 5X protein denaturing buffer (LDS) solution (5 µL). To further denature the protein, heat (70° C) was applied for 5 min. 4- […]
200 V). 10 µL of each reaction was loaded into the precast plates and electrophoresis was allowed to proceed. After completion of electrophoresis, the front part of the precast gel plate (holding hot ATP) was cut and afterwards cast-off. The dried gel was developed using a phosphor screen. A reaction without active enzyme was used as negative control while that containing no inhibitor served as positive control. […]
4.3. Statistical analysis
Computerized Prism 5 program was used to statistically analyzed data using one-way ANOVA test followed by Tukey’s as post ANOVA for multiple comparison at P ≤.05.
Data were presented as mean ± SEM.

The test system of series [6] is four human cancer cell lines (A-549, MCF-7, Panc-1, HT-29). Put plainly: Antiproliferative assay, average over four cancer cell lines (GI50). The note with it: Homo sapiens; average IC50 (GI50) over A-549, MCF-7, Panc-1, HT-29. The series is classed as cell-based. As for the experimental part:
as §1
To explore the antiproliferative potential of compounds propidium iodide fluorescence assay was performed using different cell lines such as Panc-1 (pancreas cancer cell […]
(epithelial cancer cell line), respectively. To calculate the total nuclear DNA, a fluorescent dye (propidium iodide, PI) is used which can attach to the DNA, thus offering a quick and precise technique. PI cannot pass through the cell membrane and its signal intensity can be considered as directly proportional to quantity of cellular
DNA. Cells whose cell membranes are damaged or have changed permeability are counted as dead ones. The assay was performed by seeding the cells of different cell lines at a density of 3000-7500 cells/well (in200μl medium) in culture plates followed […]
as §4
Where ATC= Absorbance of treated cells and AC= Absorbance of control. […]
was used as positive control in the assay.
as §6

Series [7] deals with T1, EGFR. Further details: method as in doi:10.1016/j.arabjc.2023.104612. The note with it: ref [36]; cited from earlier work.
Series [8] has as its system four evaluated cancer cell lines. More on the design: method as in doi:10.1016/j.arabjc.2023.104612. The note with it: ref [36]; read-out: GI50 against the four evaluated cancer cell lines; cited from earlier work.

In the series “in vitro”, `Cc1ccc(-n2c(C)cs/c2=N/Nc2ccc([N+](=O)[O-])cc2[N+](=O)[O-])cc1` [Compound 3f, (Z)-2-(2-(2,4-Dinitrophenyl)Hydrazineylidene)-4-Methyl-3-(p-Tolyl)-2,3-Dihydrothi-Azole] returned a viability at 96 h, 50 µM of 89%. Also, the IC50 in [1] worked out at 37 ± 3 nM; in series [2] it was 40 ± 3 nM; in series [3], 37 ± 3 nM; on EGFR [4] (read-out: EGFR Inhibition IC50 ± SEM), 89 ± 7 nM; in series [5], 35 ± 3 nM; on BRAF^V600E, 93 ± 8 nM. This compound came in with an IC50 in series [6] of 37 nM. Besides, the “fold less potent than erlotinib (EGFR IC50)” value at EGFR [4] (ratio of EGFR IC50 to that of erlotinib) worked out at 1.1 fold.

As to `COc1cccc(-n2c(-c3ccccc3)cs/c2=N\c2c[nH]c(=O)[nH]c2=O)c1` [Compound V], the IC50 on EGFR [7] is 74 ± 7 nM. In addition, the GI50 in [8] was 900 nM.
